Measured values as given in paper PMC6328587 (Nature Communications, 2019).
Values joined by “and” are separate entries in the source; they are usually repeats but may differ in a detail not shown here. Equal entries are not always repeated.

Assays:
p38δ = target: T1, p38δ (Homo sapiens, UniProt O15264); assay: PROTAC-induced p38δ degradation, western blot in MDA-MB-231 cells; type: cell-based; conditions: 0.025-5.0 µM survey, ± one s.d., Supplementary Table 1; for DC50: biological duplicates
T1 construct: endogenous in cells; host or cells: MDA-MB-231
T1 sequence (O15264 1-365): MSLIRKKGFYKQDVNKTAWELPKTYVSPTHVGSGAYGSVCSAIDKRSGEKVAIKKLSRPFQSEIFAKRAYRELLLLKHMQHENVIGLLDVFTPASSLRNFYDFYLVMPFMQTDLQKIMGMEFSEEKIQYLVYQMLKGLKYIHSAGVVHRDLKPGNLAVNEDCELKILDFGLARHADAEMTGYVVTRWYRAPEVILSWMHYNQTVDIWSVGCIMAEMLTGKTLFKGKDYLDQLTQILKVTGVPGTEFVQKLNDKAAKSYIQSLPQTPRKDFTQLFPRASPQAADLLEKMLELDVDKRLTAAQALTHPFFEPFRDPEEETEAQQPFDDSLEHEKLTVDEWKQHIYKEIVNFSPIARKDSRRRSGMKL
Description: (§1) MDA-MB-231 and HeLa cells were obtained from the American Type Culture Collection (ATCC), cultured in RPMI-1640 medium (1 × ) and Dulbecco’s modified Eagle’s medium (DMEM; 1 × ), respectively, containing 10% fetal bovine serum and 1% penicillin–streptomycin and grown in a humidified incubator at 37 °C and 5% CO2.
(§2) […] once with ice-cold PBS (1 × ), followed by lysis in buffer containing 25 mM Tris [pH 7.5], 0.25% sodium deoxycholate, 1% Triton X-100, supplemented with 1X protease inhibitor cocktail (Roche), and phosphatase inhibitors (10 mM NaF, 1 mM Na3VO4, and 20 mM β-glycerophosphate), unless otherwise noted. Lysates were spun at 14,000 × g for 10 min at 4 °C and supernatant was evaluated for protein content using a Pierce BCA Protein Assay (ThermoFisher Scientific). In all experiments, 25–50 μg of protein was loaded onto 10% SDS-PAGE gels or 4–20% Criterion TGX precast gradient gels (Bio-Rad), transferred to nitrocellulose membranes, and probed with the specified antibodies overnight at 4 °C in 1X TBS-Tween (Tris-buffered saline plus 0.02% Tween 20) containing 5% non-fat milk. Immunoblots were visualized using a Bio-Rad ChemiDoc imaging instrument and subsequently processed and quantified using the accompanying Bio-Rad ImageLab software. See Supplementary Figure 8 for uncropped scans of western blots shown in the main text figures.
(§3) Western blot data in Figs. 2, 6, and Supplementary Figures 2, 3 were quantified by using the band feature in Image Lab (Bio-Rad). The p38 values were normalized to the α-tubulin signal to account for differences in protein load, and PROTAC-treated normalized values were expressed as a % of the vehicle-treated (no PROTAC) value, which itself was defined as 100% p38 protein level. […] The sigmoidal fit established both the full extent of degradation, or Dmax at the bottom asymptote of the curve, as well as the DC50, which is the inflection point at which 50% of the total degradation observed was reached.

p38α = target: T2, p38α (Homo sapiens, UniProt Q16539); assay: PROTAC-induced p38α degradation, western blot in MDA-MB-231 cells; type: cell-based; conditions: 0.025-5.0 µM survey, ± one s.d., Supplementary Table 1; for DC50: biological duplicates
T2 construct: SJFα PROTAC (13-atom linker, amide attachment) selectively degrades p38α; endogenous in cells; host or cells: MDA-MB-231
Description: as §1, §2, §3

T2 sequence (Q16539 whole entry): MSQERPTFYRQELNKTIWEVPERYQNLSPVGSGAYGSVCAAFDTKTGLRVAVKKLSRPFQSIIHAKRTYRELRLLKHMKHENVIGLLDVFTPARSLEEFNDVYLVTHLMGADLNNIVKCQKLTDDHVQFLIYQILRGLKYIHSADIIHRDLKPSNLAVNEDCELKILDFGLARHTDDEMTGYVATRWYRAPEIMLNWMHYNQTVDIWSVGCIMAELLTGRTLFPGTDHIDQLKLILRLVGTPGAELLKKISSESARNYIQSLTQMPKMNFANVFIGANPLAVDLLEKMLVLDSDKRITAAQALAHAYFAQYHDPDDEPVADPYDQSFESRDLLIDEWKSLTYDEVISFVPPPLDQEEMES

Structure (SMILES) | DC50 (p38δ) | Dmax p38δ (maximum percentage of degradation) (p38δ) | DC50 (p38α) [nM] | Dmax p38α (maximum percentage of degradation) (p38α)
COc1cc2c(Oc3ccc(NC(=O)C4(C(=O)Nc5ccc(F)cc5)CC4)cc3F)ccnc2cc1OCCCOCCCOCCCOc1cc(-c2scnc2C)ccc1CNC(=O)C1CC(O)CN1C(=O)C(C(C)C)N1Cc2ccccc2C1=O (centres unmarked) [SJF-6685] | 1140 ± 1950 nM | 33.5 ± 27.2% | 304 ± 691 | –
COc1cc2c(Oc3ccc(NC(=O)C4(C(=O)Nc5ccc(F)cc5)CC4)cc3F)ccnc2cc1OCCCOCCCOCCC(=O)N[C@H](C(=O)N1C[C@H](O)C[C@H]1C(=O)NCc1ccc(-c2scnc2C)cc1)C(C)(C)C | 456 ± 362 nM | – | 230 ± 47 | 90.1 ± 4.2%
COc1cc2c(Oc3ccc(NC(=O)C4(C(=O)Nc5ccc(F)cc5)CC4)cc3F)ccnc2cc1OCCCCOCCCCOc1cc(-c2scnc2C)ccc1CNC(=O)C1CC(O)CN1C(=O)C(C(C)C)N1Cc2ccccc2C1=O (centres unmarked) [SJF-6677] | 106 ± 81.5 nM | < 50% and 43.5 ± 7.2% | 127 ± 163 | < 50% and 25.3 ± 6.6%
COc1cc2c(Oc3ccc(NC(=O)C4(C(=O)Nc5ccc(F)cc5)CC4)cc3F)ccnc2cc1OCCOCCOCCC(=O)N[C@H](C(=O)N1C[C@H](O)C[C@H]1C(=O)NCc1ccc(-c2scnc2C)cc1)C(C)(C)C [SJF-6693] | < 100 nM and 51.4 nM | 81.8 ± 1.9% | – | 92.6 ± 2.8%
COc1cc2c(Oc3ccc(NC(=O)C4(C(=O)Nc5ccc(F)cc5)CC4)cc3F)ccnc2cc1OCCCOCCOCCCOc1cc(-c2scnc2C)ccc1CNC(=O)C1CC(O)CN1C(=O)C(C(C)C)N1Cc2ccccc2C1=O (centres unmarked) [BES-4612] | 1890 ± 2350 nM | 78.7 ± 40.8% | 760 ± 1500 | 16.8 ± 13.4%
COc1cc2c(Oc3ccc(NC(=O)C4(C(=O)Nc5ccc(F)cc5)CC4)cc3F)ccnc2cc1OCCCOCCOCCC(=O)N[C@H](C(=O)N1C[C@H](O)C[C@H]1C(=O)NCc1ccc(-c2scnc2C)cc1)C(C)(C)C [SJF-6690] | < 100 nM and 91.7 nM | 96.7 ± 3.7% | – | 99.4 ± 2.0%
